Results from ChEMBL document CHEMBL1201862, “PubChem BioAssay data set” (2004).
Several values for one entry are separate records, joined by “and”; a condition that tells them apart may be missing. Equal entries are not always repeated.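 Exposure lasted 48 hours, with cells grown in 96-well plates and compounds tested at five concentrations. The concentration for 50% growth inhibition is given as GI50.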 Activity calls are given as the source filed them. No stated cut-off is given here; in the data, active = GI50 up to about 1.1 µM and inactive = higher.

Key:
Experiment in all cases: NCI tumour cell line growth inhibition, 48 h
SK-MEL-28 = test system: SK-MEL-28
SN12C = test system: SN12C
U-251 = test system: U-251
UACC-62 = test system: UACC-62
NCI-H460 = test system: NCI-H460
SF-268 = test system: SF-268
SW-620 = test system: SW-620
OVCAR-8 = test system: OVCAR-8
EKVX = test system: EKVX
OVCAR-5 = test system: OVCAR-5
SK-MEL-5 = test system: SK-MEL-5
UACC-257 = test system: UACC-257
SF-539 = test system: SF-539
K562 = test system: K562
NCI-H522 = test system: NCI-H522
HCT-116 = test system: HCT-116
SNB-19 = test system: SNB-19

Measured: GI50

Cc1nc(-n2nc(-c3ccccc3)cc2-c2ccccc2)sc1C(=O)/C=C/c1ccc(Cl)cc1
inactive: SK-MEL-28 16.9 µM | SN12C 25.6 µM | U-251 15.8 µM | UACC-62 14.1 µM | NCI-H460 25.2 µM | SF-268 29 µM | SW-620 21.5 µM | OVCAR-8 24.8 µM | EKVX 13.4 µM | OVCAR-5 34.8 µM | SK-MEL-5 13.2 µM | UACC-257 20.1 µM | SF-539 14.3 µM | K562 > 10 µM | NCI-H522 11.7 µM

CCOC(=O)C(=O)C1C(=O)Nc2ccccc21 (stereo not given)
inactive: SK-MEL-28 > 100 µM | SN12C > 100 µM | U-251 > 100 µM | UACC-62 > 100 µM | NCI-H460 > 100 µM | HCT-116 > 100 µM | SF-268 > 100 µM | SW-620 > 100 µM | OVCAR-8 > 100 µM | EKVX > 100 µM | OVCAR-5 > 100 µM | SNB-19 > 100 µM | UACC-257 > 100 µM | K562 > 100 µM

Cn1ncc(=S)[nH]c1=S
inactive: SK-MEL-28 > 100 µM | SN12C > 100 µM | U-251 > 100 µM | UACC-62 > 100 µM | NCI-H460 > 100 µM | HCT-116 > 100 µM | SF-268 > 100 µM | SW-620 > 100 µM | OVCAR-8 > 100 µM | EKVX > 100 µM | OVCAR-5 > 100 µM | SNB-19 > 100 µM | SF-539 > 100 µM | K562 > 100 µM | NCI-H522 > 100 µM

CCCCCn1cnc2c1S(=O)(=O)N(C)C(NC(=O)c1ccccc1)=N2
inactive: SK-MEL-28 > 100 µM | SN12C > 100 µM | U-251 > 100 µM | UACC-62 > 100 µM | NCI-H460 > 100 µM | HCT-116 > 100 µM | SF-268 > 100 µM | SW-620 > 100 µM | OVCAR-8 > 100 µM | EKVX > 100 µM | SK-MEL-5 > 100 µM | SNB-19 > 100 µM | UACC-257 > 100 µM | SF-539 > 100 µM | K562 > 100 µM | NCI-H522 > 100 µM

CN(C)C(=N)NC(N)=S
inactive: SK-MEL-28 > 100 µM | SN12C > 100 µM | U-251 > 100 µM | UACC-62 > 100 µM | NCI-H460 > 100 µM | HCT-116 > 100 µM | SF-268 > 100 µM | SW-620 > 100 µM | OVCAR-8 > 100 µM | EKVX > 100 µM | OVCAR-5 > 100 µM | SNB-19 > 100 µM | UACC-257 > 100 µM | SF-539 > 100 µM | K562 > 100 µM | NCI-H522 > 100 µM

Cc1ccc(S(=O)(=O)NNS(C)(=O)=O)cc1
inactive: SN12C > 100 µM | U-251 > 100 µM | UACC-62 > 100 µM | NCI-H460 > 100 µM | HCT-116 > 100 µM | SF-268 > 100 µM | SW-620 > 100 µM | OVCAR-8 > 100 µM | EKVX > 100 µM | SK-MEL-5 > 100 µM | SNB-19 > 100 µM | UACC-257 > 100 µM | SF-539 > 100 µM | K562 > 100 µM | NCI-H522 > 100 µM

CCOc1ccccc1NC(=O)CCc1n[nH]c(=S)o1
inactive: SK-MEL-28 > 100 µM | SN12C > 100 µM | U-251 > 100 µM | UACC-62 > 100 µM | HCT-116 > 100 µM | SF-268 > 100 µM | SW-620 > 100 µM | EKVX > 100 µM | SK-MEL-5 > 100 µM | SNB-19 > 100 µM | UACC-257 > 100 µM | SF-539 > 100 µM | K562 > 100 µM | NCI-H522 > 100 µM

CCOC(=O)C1Oc2ccc([N+](=O)[O-])cc2C1(C)O (stereo not given)
inactive: SK-MEL-28 > 100 µM | SN12C > 100 µM | U-251 > 100 µM | UACC-62 > 100 µM | NCI-H460 > 100 µM | SF-268 > 100 µM | SW-620 > 100 µM | OVCAR-8 > 100 µM | EKVX > 100 µM | OVCAR-5 > 100 µM | SK-MEL-5 > 100 µM | SNB-19 > 100 µM | UACC-257 > 100 µM | SF-539 > 100 µM | K562 > 100 µM | NCI-H522 > 100 µM

CCOC(OC1=C(C#N)CCC1)C(CC)[Se]c1ccccc1 (stereo not given)
inactive: SK-MEL-28 40.9 µM | SN12C 14.3 µM | U-251 10.3 µM | UACC-62 19 µM | NCI-H460 36.4 µM | HCT-116 26.2 µM | SF-268 18.8 µM | OVCAR-8 23.7 µM | EKVX 35.7 µM | OVCAR-5 22.7 µM | SK-MEL-5 15 µM | SNB-19 48.1 µM | UACC-257 80.9 µM | SF-539 19 µM | K562 32.7 µM | NCI-H522 13.8 µM

C=CCOC1=C2CC[C@H](O)[C@@]2(C)CCC1=O
inactive: SK-MEL-28 > 100 µM | SN12C > 100 µM | U-251 > 100 µM | UACC-62 > 100 µM | NCI-H460 > 100 µM | HCT-116 > 100 µM | SF-268 > 100 µM | SW-620 > 100 µM | OVCAR-8 > 100 µM | EKVX > 100 µM | OVCAR-5 > 100 µM | SK-MEL-5 > 100 µM | SNB-19 > 100 µM | UACC-257 > 100 µM | SF-539 > 100 µM | NCI-H522 > 100 µM

CC(=O)OCC1OC(n2c(=S)n(-c3ccccc3)c(=O)c3cc(Br)ccc32)C(OC(C)=O)C(OC(C)=O)C1OC(C)=O (stereo not given)
inactive: SK-MEL-28 > 100 µM | SN12C > 100 µM | U-251 > 100 µM | UACC-62 > 100 µM | NCI-H460 > 100 µM | SF-268 > 100 µM | SW-620 > 100 µM | OVCAR-8 > 100 µM | EKVX > 100 µM | OVCAR-5 > 100 µM | SK-MEL-5 > 100 µM | SNB-19 > 100 µM and 70.5 µM | UACC-257 > 100 µM | SF-539 > 100 µM | K562 > 100 µM | NCI-H522 > 100 µM

CC1=Nn2c(nnc2-c2ccccc2Cl)NC(C)(C)C1
inactive: SK-MEL-28 > 100 µM | SN12C > 100 µM | U-251 81.7 µM | UACC-62 > 100 µM | NCI-H460 > 100 µM | HCT-116 > 100 µM | SF-268 > 100 µM | SW-620 6.25 µM | OVCAR-8 > 100 µM | EKVX > 100 µM | OVCAR-5 > 100 µM | SK-MEL-5 > 100 µM | SNB-19 > 100 µM | SF-539 > 100 µM | K562 42.9 µM | NCI-H522 23.8 µM

C=CC/C=C/C/C=C/CCCCCCCc1cccc(O)c1C(=O)O
inactive: SK-MEL-28 32.7 µM | U-251 19.7 µM | UACC-62 31.1 µM | NCI-H460 36.1 µM | HCT-116 > 100 µM | SF-268 24.3 µM | SW-620 45.9 µM | OVCAR-8 > 100 µM | EKVX 49 µM | OVCAR-5 > 100 µM | SNB-19 34.9 µM | UACC-257 73.3 µM | SF-539 69.5 µM | K562 33.3 µM | NCI-H522 39.5 µM
